Data reported in patent US9493781B2, “Synthetic brassica-derived chloroplast transit peptides” (DOW AGROSCIENCES LLC, priority 2012, dated 2016).

B1: TraP23: chloroplast transit peptide TraP23 v2, SEQ ID NO:39 (protein)
chain: MAQINKSANGVRNASLISNFSNTRQAKSPFSLSCGTRLKNSSRGLKKVAVRLIGSRVKVSAS
modifications: Chloroplast Transit Peptide

Columns and labels:
[1] = test system: Zea mays; assay: Post-emergence glyphosate tolerance of dgt-28 transformed T0 corn; assay type: in vivo
Experimental: Herbicide Tolerance in dgt-28 Transformed Corn. Zea mays dgt-28 transformation events (T0) were allowed to acclimate in the greenhouse and were grown until plants had transitioned from tissue culture to greenhouse growing conditions (i.e., 2-4 new, normal looking leaves had emerged from the whorl). Plants were grown at 27° C. under 16 hour light: 8 hour dark conditions in the greenhouse. The plants were then treated with commercial formulations of DURANGO DMA™ (containing the herbicide glyphosate) with the addition of 2% w/v ammonium-sulfate. Herbicide applications were made with a track sprayer at a spray volume of 187 L/ha, 50-cm spray height. T0 plants were sprayed with a range of glyphosate from 280-4480 g ae/ha glyphosate, which is capable of significant injury to untransformed corn lines. A lethal dose is defined as the rate that causes >95% injury to the B104 inbred.
Post-Emergence Herbicide Tolerance in dgt-28 Transformed T0 Corn. T0 events of dgt-28 linked with TraP4, TraP5, TraP8 and TraP23 were generated by Agrobacterium transformation and were allowed to acclimate under controlled growth chamber conditions until 2-4 new, normal looking leaves had emerged from the whorl. Plants were assigned individual identification numbers and sampled for copy number analyses of both dgt-28 and aad-1. Based on copy number analyses, plants were selected for protein expression analyses. […]

[2] = test system: tobacco (cv. Petit Havana); assay: Postemergence glyphosate tolerance of dgt-28 transformed T1 and T2 tobacco; assay type: in vivo; details: 14 DAT, 2240 g ae/ha glyphosate (DURANGO DMA)
From the text: Postemergence herbicide tolerance in dgt-28 transformed T1 tobacco. T1 resistant plants from each event used in the progeny testing were given unique identifiers and sampled for zygosity analyses of the dgt-28 gene. Zygosity data were used to assign 2 hemizygous and 2 homozygous replicates to each rate of glyphosate applied allowing for a total of 4 replicates per treatment. These plants were compared against wildtype Petite havana tobacco. All plants were sprayed with a track sprayer set at 187 L/ha. The plants were sprayed from a range of 560-4480 g ae/ha DURANGO DMA™. All applications were formulated in water with the addition of 2% w/v ammonium sulfate (AMS). Plants were evaluated at 7 and 14 days after treatment. Plants were assigned an injury rating with respect to overall visual stunting, chlorosis, and necrosis. The T1 generation is segregating, so some variable response is expected due to difference in zygosity.
Rates of DURANGO DMA™ ranging from 420-3360 g ae/ha glyphosate were applied to 2-3 leaf tobacco as previously described.

| Molecule | Glyphosate rate that controlled non-transformed plants [1] [g ae/ha] | % Injury Ave [2] [%] |
| --- | --- | --- |
| O=C(O)CNCP(=O)(O)O [glyphosate] | ≥ 280 | – |
| B1 | – | 9.5 |
